Legend:
[1] = tested on: NCI-N87 stomach cancer cell line; experiment: Cell growth inhibition assay, NCI-N87 (CellTiter-Glo); assay type: cell-based; details: Homo sapiens; NCI-N87, 5,000 cells/well, 96 hours
Procedure: The inhibitory effects of the compounds of the present invention against the growth of cancer cells were evaluated as shown below. The cancer cell lines including prostate cancer cell lines (LNCaP, DU-145), stomach cancer cell line (NCI-N87), and breast cancer cell lines (MDA-MB-468) were cultured under the protocol provided by each supplier. A medium supplemented with 10 ng/mL of IL-6 was used for LNCaP, a prostate cancer cell line, when treated with a drug. Each type of cells to be used in experiments was sub-cultured in a 96-well plate by counting the exact number of cells using Tali™ Image-based Cytometer (Life Technologies). In a 96-well plate, DU-145 was employed with 3,000 cells/well; NCI-N87 was employed with 5,000 cells/well; and LNCaP and MDA-MB-468 were employed with 10,000 cells/well. The cells were treated with the compounds listed in Examples which were diluted in various concentrations. Upon completion of the compounds treatment, LNCaP, DU-145, NCI-N87 cells were cultured at 37° C. under 5% CO2 for 96 hours, and MDA-MB-468 cells were cultured at 37° C. in air for 96 hours. Subsequently, the cells were observed under microscope and drug precipitation and particular findings were investigated and recorded. And then, the 96-well plate was placed at room temperature for 30 minutes, added with 20 pt/well of CellTiter-Glo solution (Cat No. G7573, Promega) and shaken for 10 minutes, followed by being subjected to the measurement using PHERAstar™ microplate reader (BMG LABTECH) according to the supplier's general luminometer protocol. Wells where only culture liquid added without cell plating were used as a negative control, whereas wells where culture liquid containing 0.1% DMSO instead of the compounds listed in Examples were used as a positive control.

STAT1 = STAT1 reporter gene assay (luciferase), U2OS stable cell line pGL4-STAT1-TA-luc, IFN-γ stimulation; assay type: cell-based, human; details: Homo sapiens, IFN-γ 50 ng/mL, 8 hours, read-out: IC50 (μM) pSTAT1
Outline: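 U2OS cells stably carrying a STAT1-driven luciferase reporter were treated with serially diluted compounds plus IFN-γ (50 ng/mL final) for 8 h at 37 °C in 10% FBS medium. Luciferase read after lysis; parallel plate assessed for cytotoxicity by CellTiter-Glo.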

STAT3 = STAT3 reporter gene assay (luciferase), LNCaP stable cell line pSTAT3-TA-luc, IL-6 stimulation; assay type: cell-based, human; details: Homo sapiens
Outline: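 LNCaP cells stably carrying pSTAT3-TA-luc were plated 24 h in 3% DCC-FBS medium, then given compound followed by IL-6 (10 ng/mL final) for 24 h at 37 °C. Luciferase was read from lysates, with CellTiter-Glo viability on a duplicate plate. Stimulated 0.1% DMSO wells served as uninhibited control.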

IC50 [1] [µM] | IC50 (STAT1) [µM] | IC50 (STAT3) [µM] | Compound
0.057 | > 50 | 0.024 | COc1cc(Cl)cc(Oc2cc(NC(=O)c3cc4cc(C(C)(C)S(C)(=O)=O)ccc4s3)cc(Cl)n2)c1 [Example 70, N-(2-chloro-6-(3-chloro-5-methoxyphenoxy)pyridin-4-yl)-5-(2-(methylsulfonyl)propan-2-yl)benzo[b]thiophene-2-carboxamide]
0.45 | > 50 | 0.13 | O=C(Nc1cc(Cl)nc(Oc2ccc(Cl)cc2)c1)c1cc2cc(C3CCCS3(=O)=O)ccc2s1 (stereo not drawn) [Example 73, N-(2-chloro-6-(4-chlorophenoxy)pyridin-4-yl)-5-(1,1-dioxidotetrahydrothiophen-2-yl)benzo[b]thiophene-2-carboxamide]
0.61 | > 50 | 0.12 | O=C(Nc1cc(Cl)nc(Oc2ccc(Cl)cc2)c1)c1cc2cc(C3CCCCS3(=O)=O)ccc2s1 (stereo not drawn) [Example 74, N-(2-chloro-6-(4-chlorophenoxy)pyridin-4-yl)-5-(1,1-dioxidotetrahydro-2H-thiopyran-2-yl)benzo[b]thiophene-2-carboxamide]
0.052 | > 50 | 0.1 | CC(C)(c1ccc2sc(C(=O)Nc3cc(F)nc(Oc4ccc(Cl)cc4)c3)cc2c1)S(C)(=O)=O [Example 77, N-(2-(4-chlorophenoxy)-6-fluoropyridin-4-yl)-5-(2-(methylsulfonyl)propan-2-yl)benzo[b]thiophene-2-carboxamide]
0.2 | > 50 | 0.05 | CC(C)(c1ccc2sc(C(=O)Nc3cc(Cl)nc(OC4CC5C=CC4C5)c3)cc2c1)S(C)(=O)=O (stereo not drawn) [Example 78, N-(2-(bicyclo[2.2.1]hept-5-en-2-yloxy)-6-chloropyridin-4-yl)-5-(2-(methylsulfonyl)propan-2-yl)benzo[b]thiophene-2-carboxamide]
1.5 | > 50 | 0.19 | CC(C)(c1ccc2sc(C(=O)N3CCOc4c(Cl)cc(Oc5ccc(Cl)cc5)cc43)cc2c1)S(C)(=O)=O [Example 96, (8-chloro-6-(4-chlorophenoxy)-2,3-dihydro-4H-benzo[b][1,4]oxazin-4-yl)(5-(2-(methylsulfonyl)propan-2-yl)benzo[b]thiophen-2-yl)methanone]
0.068 | > 50 | 0.0093 | CC(C)(c1ccc2sc(C(=O)Nc3cc(Cl)nc(OC4CC=C(Cl)CC4)c3)cc2c1)S(C)(=O)=O (stereo not drawn) [Example 101, N-(2-chloro-6-((4-chlorocyclohex-3-en-1-yl)oxy)pyridin-4-yl)-5-(2-(methylsulfonyl)propan-2-yl)benzo[b]thiophene-2-carboxamide]
1.3 | > 50 | 0.18 | CC(C)(c1ccc2sc(C(=N)Nc3cc(Cl)cc(Oc4ccc(Cl)cc4)c3)cc2c1)S(C)(=O)=O [Example 103, N-(3-chloro-5-(4-chlorophenoxy)phenyl)-5-(2-(methylsulfonyl)propan-2-yl)benzo[b]thiophene-2-carboximidamide 2,2,2-trifluoroacetate]
1.7 | 8.7 | 1.4 | CC(C)(c1ccc2sc(C(=O)Nc3cc(Cl)nc(N4CCN5CCCC5C4)c3)cc2c1)S(C)(=O)=O (stereo not drawn) [Example 104, N-(2-chloro-6-(hexahydropyrrolo[1,2-a]pyrazin-2(1H)-yl)pyridin-4-yl)-5-(2-(methylsulfonyl)propan-2-yl)benzo[b]thiophene-2-carboxamide]
0.087 | > 50 | 0.049 | CC(C)(C)C1CCN(c2cc(NC(=O)c3cc4cc(C(C)(C)S(C)(=O)=O)ccc4s3)cc(Cl)n2)CC1 [Example 105, N-(2-(4-(tert-butyl)piperidin-1-yl)-6-chloropyridin-4-yl)-5-(2-(methylsulfonyl)propan-2-yl)benzo[b]thiophene-2-carboxamide]
1.8 | 8.5 | 0.43 | CC(C)(c1ccc2sc(C(=O)Nc3cc(Cl)nc(N4CCN5CCCCC5C4)c3)cc2c1)S(C)(=O)=O (stereo not drawn) [Example 106, N-(2-chloro-6-(octahydro-2H-pyrido[1,2-a]pyrazin-2-yl)pyridin-4-yl)-5-(2-(methylsulfonyl)propan-2-yl)benzo[b]thiophene-2-carboxamide]
5.5 | 33.5 | > 10 | CCN1CCC2(CCN(c3cc(NC(=O)c4cc5cc(C(C)(C)S(C)(=O)=O)ccc5s4)cc(Cl)n3)C2)C1 (stereo not drawn) [Example 107, N-(2-chloro-6-(7-ethyl-2,7-diazaspiro[4.4]nonan-2-yl)pyridin-4-yl)-5-(2-(methylsulfonyl)propan-2-yl)benzo[b]thiophene-2-carboxamide]
0.13 | > 50 | 0.085 | CC(C)(c1ccc2sc(C(=O)Nc3cc(Cl)nc(N4CCC5CCCCC5C4)c3)cc2c1)S(C)(=O)=O (stereo not drawn) [Example 108, N-(2-chloro-6-(octahydroisoquinolin-2(1H)-yl)pyridin-4-yl)-5-(2-(methylsulfonyl)propan-2-yl)benzo[b]thiophene-2-carboxamide]
1.2 | 44.8 | 0.53 | Cn1nccc1Oc1cc(NC(=O)c2cc3cc(C(C)(C)S(C)(=O)=O)ccc3s2)cc(Cl)n1 [Example 110, N-(2-chloro-6-((1-methyl-1H-pyrazol-5-yl)oxy)pyridin-4-yl)-5-(2-(methylsulfonyl)propan-2-yl)benzo[b]thiophene-2-carboxamide]
2.4 | > 50 | 1.3 | Cc1nn(C)c(C)c1Oc1cc(NC(=O)c2cc3cc(C(C)(C)S(C)(=O)=O)ccc3s2)cc(Cl)n1 [Example 111, N-(2-chloro-6-((1,3,5-trimethyl-1H-pyrazol-4-yl)oxy)pyridin-4-yl)-5-(2-(methylsulfonyl)propan-2-yl)benzo[b]thiophene-2-carboxamide]
1 | 18.9 | 0.32 | Cn1cc(Oc2cc(NC(=O)c3cc4cc(C(C)(C)S(C)(=O)=O)ccc4s3)cc(Cl)n2)cn1 [Example 112, N-(2-chloro-6-((1-methyl-1H-pyrazol-4-yl)oxy)pyridin-4-yl)-5-(2-(methylsulfonyl)propan-2-yl)benzo[b]thiophene-2-carboxamide]
0.27 | > 50 | 0.18 | Cc1noc(C)c1Oc1cc(NC(=O)c2cc3cc(C(C)(C)S(C)(=O)=O)ccc3s2)cc(Cl)n1 [Example 113, N-(2-chloro-6-((3,5-dimethylisoxazol-4-yl)oxy)pyridin-4-yl)-5-(2-(methylsulfonyl)propan-2-yl)benzo[b]thiophene-2-carboxamide]
0.13 | > 50 | 0.063 | Cc1cc(Oc2cc(NC(=O)c3cc4cc(C(C)(C)S(C)(=O)=O)ccc4s3)cc(Cl)n2)cs1 [Example 114, N-(2-chloro-6-((5-methylthiophen-3-yl)oxy)pyridin-4-yl)-5-(2-(methylsulfonyl)propan-2-yl)benzo[b]thiophene-2-carboxamide]

From patent US10023591B2, “Heterocyclic derivatives and use thereof” (C&C RESEARCH LABORATORIES, priority 2014, dated 2018)
